pIC50: −log10 of the molar value.
Legend:
HepG2 cells [1] = assay: Hepatotoxicity, XTT viability after 72 h; assay type: cell-based; conditions: Homo sapiens; 72 h, HepG2, 5.5 mM glucose; read-out: Hepatotoxicity IC50, 5.5 mM glucose
Procedure: Then, the cell viability (XTT assay) and reactive oxygen species (ROS) induction were evaluated.
(§1) (A) Hepatotoxicity provoked by compound 4 was assessed after 72 h incubation of HepG2 cells in low glucose medium (5 mM) in the presence of compound 4 (0.25–100 μM). (B) Mitochondrial toxicity was determined after 24 h incubation of HepG2 cells in either high glucose medium (25 mM) or galactose medium (10 mM) in the presence of compound 4 (2.5–150 μM). Cell viabilities were recorded in triplicates in three independent experiments and expressed as percentage of vehicle control ± SD and IC50 values were determined by GraphPad Prism software using following equation: Y = Bottom + (Top–Bottom)/(1 + 10ˆ((LogIC50-X)^∗HillSlope)), where IC50 is the concentration of compound 4 that inhibits cell viability half way between Bottom and Top plateaus, X is compound 4 concentration and HillSlope describes the steepness of the family of curves. […] (C) Concentration-dependent effect on ROS level. HepG2 cells were treated with compound 4 (0.25–100 μM) for 72 h, and then the intracellular level of total ROS in relative fluorescence units (RFU) was detected. The data are presented as the mean ± SD for at least three independent experiments and each experiment was carried out in triplicate. Final concentration of DMSO in samples was 1%. […] Single asterisks (^∗) indicate a significant difference (P < 0.05) compared to 1% DMSO control (one-way ANOVA with Dunnett’s post-test).
(§2) HepG2 cells (ATCC®, United Kingdom) were grown in complete Minimal Essential Medium (EMEM) (5.5 mM glucose) medium, supplemented with 10% (v/v) fetal calf serum, 200 μg/mL of streptomycin, 200 U/mL of penicillin G and 4 mM glutamine. They were cultured under a humidified atmosphere containing 5% CO2 at 37°C.
(§3) The cytotoxicity of the tested compounds was assessed with use of XTT cell proliferation kit II (Roche Diagnostics GmbH, Mannheim, Germany) according to the manufacturer’s instructions. Briefly HepG2 cells were seeded in a 96-well plate at a density of 22,000 cells per well. After 24 h, the tested neurosteroids in a concentration range from 0.5 to 200 μM were added to the culture media and incubated for 72 h before the XTT dye was added. Mitochondrial toxicity was assessed in HepG2 cells using glucose and galactose conditioned media and XTT assay as a read out for cell viability. In brief, cells were seeded onto 96 well, clear bottom tissue culture plates at a density of 22,000 cells/well and left overnight to attach. Six hours prior to the neurosteroids treatment the media was replaced with 100 μL DMEM media containing either glucose (25 mM glucose; 1 mM pyruvate; 2 mM glutamine, 10% FBS) or galactose (10 mM galactose, 1 mM pyruvate, 6 mM glutamine, 10% FBS). After that, the tested neurosteroids in a concentration range from 0.5 to 200 μM were added in the fresh appropriate assay medium (glucose or galactose) and incubated for 24 h before the XTT dye was added. The XTT absorbance was recorded at 495 nm after 1 h incubation with the dye. Compounds were dissolved in DMSO to produce the stock solutions at the concentration of 10 mM, with exception of PAG, 1, 6 (5 mM), and 11 (2.5 mM). Results were expressed as percentages of change in viability compared to appropriate DMSO control. IC50 values were determined by GraphPad Prism version 5.00 for Windows (GraphPad Software, La Jolla, CA, United States). All experiments were done in triplicates in three independent experiments to check the reproducibility.

HepG2 cells [2] = assay: Mitotoxicity, XTT viability in glucose vs galactose medium; conditions: Homo sapiens, HepG2, 24 h
Procedure: as §1, §2, §3

Measured: pIC50

C[C@@]12CCC[C@H]1[C@@H]1CC[C@@H]3C[C@H](NC(=O)[C@@H](N)CC(=O)O)CC[C@]3(C)[C@H]1CC2 [Compound 6, (S)-3-amino-4-(((3R,5R,8S,9S,10S,13S,14S)-10,13-dimethylhexadecahydro-1H-cyclopenta[a]phenanthren-3-yl)amino)-4-oxobutanoic acid]
< 3.70: HepG2 cells [1] | HepG2 cells [2]; read-out: Mitotoxicity IC50, 10 mM galactose | HepG2 cells [2]; read-out: Mitotoxicity IC50, 25 mM glucose

From publication PMC6240685, “Strong Inhibitory Effect, Low Cytotoxicity and High Plasma Stability of Steroidal Inhibitors of N-Methyl-D-Aspartate Receptors With C-3 Amide Structural Motif” (Frontiers in Pharmacology, 2018)
